These results are taken from PubChem BioAssay (NCI).

Some test systems named below: A498 renal; OVCAR-5 ovarian; A549 NSCLC; NCI-H226 lung; T-47D breast; HCT-116 colon; UACC-257 melanoma; K-562 leukemia; RPMI-8226 leukemia; SF-539 CNS.
Holding throughout (test): NCI anticancer screen, dose series, 48 h

SMILES strings stand for the structures.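 Test compounds were applied to cells in 96-well plates for 48 hours at 5 doses. At the GI50, growth is halved. The concentration for full growth arrest is given as TGI.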

With `NC(CSC(c1ccccc1)(c1ccccc1)c1ccc2ccccc2c1)C(=O)O` (centres undefined), the GI50 with A498 renal was 0.0529 µM; in the test on OVCAR-5 ovarian, 0.323 µM; with A549 NSCLC it was 0.095 µM; in the test on NCI-H226 lung, 9.27 µM; in the test on T-47D breast it was 0.132 µM; with HCT-116 colon it was 0.0312 µM. Besides, the GI50 in the test with UACC-257 melanoma was 9.67 µM; in the test with K-562 leukemia it was 0.0461 µM; with RPMI-8226 leukemia it was 0.0327 µM; in the test with SF-539 CNS, 0.0384 µM. The TGI with A498 renal turned out to be 3.79 µM; with OVCAR-5 ovarian it was 16.9 µM; in the test on A549 NSCLC, 26.4 µM; with NCI-H226 lung it was 24.5 µM; with T-47D breast, 18 µM; with HCT-116 colon it was 0.958 µM. Moreover, the TGI is 34.3 µM in the test with UACC-257 melanoma, more than 100 µM in the test with K-562 leukemia and 3.07 µM in the test with SF-539 CNS.

As to `N#Cc1nc(-c2ccccc2)oc1S(=O)(=O)N1CCOCC1`, the GI50 in the test on A498 renal is 15.6 µM; in the test with OVCAR-5 ovarian, 13.6 µM; in the test on A549 NSCLC it was 27.9 µM; with NCI-H226 lung, 3.67 µM; in the test with T-47D breast it was 1.78 µM; with HCT-116 colon, 1.74 µM. Further, the GI50 was 4.74 µM in the test on UACC-257 melanoma, 2.03 µM in the test on K-562 leukemia, 2.58 µM in the test on RPMI-8226 leukemia and 2.6 µM in the test on SF-539 CNS. Moreover, the TGI with A498 renal was 32 µM; in the test with OVCAR-5 ovarian, 27.6 µM; with A549 NSCLC, more than 100 µM; with NCI-H226 lung, 16.1 µM; in the test with T-47D breast, 3.84 µM; in the test with HCT-116 colon it was 3.42 µM. Besides, the TGI is 19 µM in the test with UACC-257 melanoma, more than 100 µM with K-562 leukemia, 7.89 µM with RPMI-8226 leukemia and 7.69 µM in the test on SF-539 CNS.

As for `C#Cc1ccc(NC(=O)c2ccc(/C=C/C(=O)c3nccn3C)cc2)cc1`, the GI50 in the test with A498 renal is 0.512 µM; in the test on OVCAR-5 ovarian it was 0.488 µM; in the test with A549 NSCLC it was 0.702 µM; in the test on NCI-H226 lung it was 0.605 µM; in the test on T-47D breast, 0.521 µM; with HCT-116 colon, 0.326 µM. Besides, the GI50 in the test with UACC-257 melanoma was 0.66 µM; with K-562 leukemia, 0.136 µM; in the test with RPMI-8226 leukemia it was 0.115 µM; in the test with SF-539 CNS, 0.42 µM. For the same compound, the TGI turned out to be 1.39 µM in the test on A498 renal; 1.19 µM in the test on OVCAR-5 ovarian; 5.02 µM in the test on A549 NSCLC; 2 µM with NCI-H226 lung; 2.44 µM in the test on T-47D breast; 0.721 µM with HCT-116 colon. Also, the TGI in the test with UACC-257 melanoma was 2.21 µM; in the test on K-562 leukemia it was 6.55 µM; in the test with RPMI-8226 leukemia, 0.672 µM; in the test with SF-539 CNS, 0.801 µM.

Consider `C=C(C)[C@H]1CC/C(C)=C/CCC(C)C(=O)CC/C(CO)=C\[C@@H]1O` (some centres undefined), for which the GI50 is 68.7 µM in the test on A498 renal; more than 100 µM in the test with OVCAR-5 ovarian; more than 100 µM in the test with A549 NSCLC; more than 100 µM in the test with NCI-H226 lung; more than 100 µM in the test with T-47D breast; 97.4 µM with HCT-116 colon. Moreover, the GI50 in the test on UACC-257 melanoma is more than 100 µM; in the test with K-562 leukemia, 65.6 µM; in the test on RPMI-8226 leukemia it was more than 100 µM; with SF-539 CNS it was more than 100 µM. Moreover, the TGI in the test with A498 renal, in the test on OVCAR-5 ovarian, in the test with A549 NSCLC, with NCI-H226 lung, in the test with T-47D breast and with HCT-116 colon was more than 100 µM each time. Moreover, the TGI with UACC-257 melanoma, in the test on K-562 leukemia, in the test on RPMI-8226 leukemia and with SF-539 CNS was more than 100 µM in each case.
